From PMC12030059, “Mechanistic Advances in the Therapeutic Application of Bixin for Lung Inflammation In Vitro and In Vivo” (Pharmaceuticals, 2025)

Experiments:
Type in all cases: cell-based
RAW 264.7 macrophages = assay: MTT cell viability assay; details: 12.5 to 200 μM, 3 h of exposure
Experimental: RAW 264.7 cells were plated (5 × 10^4 cells/well) in a 96-well plate with DMEM and 10% FBS. When cells reached 90% confluence, the 10% (v/v) FBS DMEM was discarded and replaced with the stimuli. […] The metabolism of MTT by the cells was monitored by the formation of insoluble salts, which were then dissolved in isopropyl alcohol. Absorbance was read at 570 nm using a Varioskan LUX (ThermoFisher Scientific, Waltham, MA, USA). […] Cell viability was normalized in all groups by the control (1% (v/v) FBS DMEM), with 10% (v/v) FBS in DMEM used as the positive growth control.

RAW 264.7 cells [1] = assay: ROS scavenger activity assay (NBT), LPS-induced; details: for ROS production induced by LPS: LPS 10 μg/mL, 12.5–200 μM, effect starting from 100 µM
Experimental: ROS levels were determined using the NBT method. RAW 264.7 cells were incubated for 1 h with 10 μg/mL LPS and different concentrations of bixin or potassium bixinate (0–200 μM) to evaluate their ability to intercept superoxide anions induced by LPS. After incubation, a 10% (w/v) NBT solution was added to each well and incubated for 1 h at 37 °C. Cellular membranes were permeabilized with 2 M KOH, and the resulting formazan was solubilized in DMSO. Optical density (OD) was measured at 630 nm using a Varioskan LUX spectrophotometer (ThermoFisher Scientific, Waltham, MA, USA).

RAW 264.7 cells [2] = assay: Wound healing migration assay; details: 24 h, mitomycin C pretreated; for cell migration (wound closure), compound alone: 200 μM, no stimulus; for cell migration induced by CSE: CSE 5% plus compound
Experimental: RAW 264.7 cells were seeded in a 24-well plate (4.0 × 10^5 cells/well) and cultured until maximum confluence. Cells were then treated with mitomycin C (5 μg/mL) in FBS-free DMEM for 2 h, followed by washing with PBS. A linear scratch was made with a 200 μL pipette tip in each well. Cells were then stimulated for 24 h with the stimuli diluted in DMEM supplemented with 1% (v/v) FBS. Wound closure was monitored by capturing images at 0 and 24 h. The area of wound closure in each image was measured at five different points using a ruler tool, and an average was calculated for each image and condition. Cell migration was quantified as the percentage of wound closure at 24 h compared to the area at 0 h for each group.

[3] = system: p-p65 NF-κB in RAW 264.7 cells; assay: Immunocytochemistry for p-p65 nuclear translocation; details: for nuclear p-p65 (green fluorescence colocalized with DAPI), compound alone: 200 μM, no stimulus; for p-p65 NF-κB nuclear translocation in cells stimulated with CSE: 5% CSE then compound 200 μM
Experimental: RAW 264.7 cells were seeded in a 24-well plate (2.5 × 10^5 cells/well) and stimulated as previously described. After reaching 70% confluence, cells were blocked with 5% (w/v) BSA for 1 h, then washed three times in PBS-Tween 20 (0.1% (v/v)). The supernatants were replaced with a solution containing the primary antibody against p-p65 (#3033-rabbit-1:500) (Cell Signaling Technology, Danvers, MA, USA) diluted in PBS-T with 1% (w/v) BSA and incubated overnight. After incubation, cells were incubated for 1 h with a secondary antibody conjugated to Alexa Fluor-488 (1:1000; ThermoFisher Scientific, Waltham, MA, USA). Cells were then washed three times with PBS-T and incubated with DAPI for 5 min. After the final wash, DMEM FluoroBrite was added, and fluorescence was analyzed using the EVOS inverted microscope (ThermoFisher Scientific, Waltham, MA, USA). Images were captured at 20× magnification from at least 10 fields for each experimental condition, and fluorescence intensity was quantified.

HDAC6 = assay: Western blotting, HDAC6 expression; details: RAW 264.7, increase by CSE 5%
Experimental: The RAW 264.7 macrophage cell lines were cultured in DMEM supplemented with 10% (v/v) FBS, pH 7.2, at 37 °C in a humidified atmosphere with 5% CO2. RAW 264.7 cells were plated in a 24-well plate (3.5 × 10^5 cells/well) in DMEM with 1% (v/v) FBS and left overnight to adhere. […] After incubation, the medium was removed, and a 100 μM solution of bixin or potassium bixinate (diluted in DMEM; bixin was first prepared as a stock solution in DMSO) was added for an additional 1 h.
Cells were lysed in RIPA buffer containing […]™ Protease Inhibitor and 1 mM sodium orthovanadate. Samples were then analyzed using the bicinchoninic acid (BCA) method (BCA Protein Assay Kit). […] For protein quantification, 10 μL of the sample was mixed with 100 μL of the working solution, and the same procedure was performed for each point on the standard curve in a 96-well plate. […] Absorbance was read at 565 nm using a Varioskan LUX spectrophotometer (ThermoFisher Scientific, Waltham, MA, USA).
(§1) Cell lysates (10–20 μg of protein) were separated by SDS-PAGE (sodium dodecyl sulfate polyacrylamide gel for electrophoresis) (8 or 12% polyacrylamide) and transferred (25 V, 1.0 A, 30 min—Trans-Blot Turbo Transfer System, Bio-Rad—São Paulo, Brazil) to a PVDF membrane. […] Densitometry was quantified using ImageJ software v. […] Results are expressed as densitometric values for each protein normalized to β-actin.

ICAM-1 = assay: Western blotting, ICAM-1 expression; details: RAW 264.7, 200 μM following CSE 5% exposure
Experimental: (§2) The RAW 264.7 macrophage cell lines were cultured in DMEM supplemented with 10% (v/v) FBS, pH 7.2, at 37 °C in a humidified atmosphere with 5% CO2. RAW 264.7 cells were plated in a 24-well plate (3.5 × 10^5 cells/well) in DMEM with 1% (v/v) FBS and left overnight to adhere. […]
(§3) Cells were lysed in RIPA buffer containing […]™ Protease Inhibitor and 1 mM sodium orthovanadate. Samples were then analyzed using the bicinchoninic acid (BCA) method (BCA Protein Assay Kit). Standard curves with known albumin concentrations (0–2 mg/mL) were used. The working solution was prepared according to the manufacturer’s instructions. For protein quantification, 10 μL of the sample was mixed with 100 μL of the working solution, and the same procedure was performed for each point on the standard curve in a 96-well plate. […] Absorbance was read at 565 nm using a Varioskan LUX spectrophotometer (ThermoFisher Scientific, Waltham, MA, USA).
as §1

NOS2 = assay: Western blotting, NOS2 expression; details: RAW 264.7, 200 μM, CSE 5%
Experimental: as §2, §3, §1

Compound | cell viability (RAW 264.7 macrophages) | ROS production induced by LPS (RAW 264.7 cells [1]) | potency to intercept ROS formation relative to bixin (RAW 264.7 cells [1]; in vitro, KBx versus bixin) | cell migration (wound closure), compound alone (RAW 264.7 cells [2]) | cell migration induced by CSE (RAW 264.7 cells [2]) | nuclear p-p65 (green fluorescence colocalized with DAPI), compound alone [3] | p-p65 NF-κB nuclear translocation in cells stimulated with CSE [3] | HDAC6 expression (HDAC6/β-actin) (HDAC6) | ICAM-1 expression (ICAM-1/β-actin) (ICAM-1) | NOS2 expression (NOS2/β-actin) (NOS2)
potassium bixinate [KBx] | did not affect cell viability | dose-dependent reduction in ROS production | three-fold more potency | no migration occurred | completely inhibited | do not display a significant increase in green fluorescence intensity | prevent p-p65 NF-κB nuclear translocation | effective in reducing it | reduced ICAM-1 expression | reduced it
COC(=O)/C=C/C(C)=C\C=C\C(C)=C\C=C\C=C(C)\C=C\C=C(C)\C=C\C(=O)O [HBx, (2E,4E,6E,8E,10E,12E,14E,16Z,18E)-20-methoxy-4,8,13,17-tetramethyl-20-oxoicosa-2,4,6,8,10,12,14,16,18-nonaenoic acid] | did not affect cell viability | dose-dependent reduction in ROS production | – | no migration occurred | completely inhibited | do not display a significant increase in green fluorescence intensity | prevent p-p65 NF-κB nuclear translocation | effective in reducing it | reduced ICAM-1 expression | reduced it
